Assay results published in ChEMBL document CHEMBL4229367, “Identification of multi-target inhibitors of leukotriene and prostaglandin E2 biosynthesis by structural tuning of the FLAP inhibitor BRP-7” (Eur J Med Chem, 2018).

Columns and labels:
[1] = molecular target: T1, Polyunsaturated fatty acid 5-lipoxygenase (Homo sapiens, UniProt P09917); experiment: Inhibition of 5-LO in A23187-stimulated human neutrophils assessed as reduction in 5-LO product formation preincubated for 15 mins followed by A23187 and 10 uM arachidonic acid addition and measured after 10 mins by UV based RP-HPLC analysis
T1 sequence (P09917 whole entry): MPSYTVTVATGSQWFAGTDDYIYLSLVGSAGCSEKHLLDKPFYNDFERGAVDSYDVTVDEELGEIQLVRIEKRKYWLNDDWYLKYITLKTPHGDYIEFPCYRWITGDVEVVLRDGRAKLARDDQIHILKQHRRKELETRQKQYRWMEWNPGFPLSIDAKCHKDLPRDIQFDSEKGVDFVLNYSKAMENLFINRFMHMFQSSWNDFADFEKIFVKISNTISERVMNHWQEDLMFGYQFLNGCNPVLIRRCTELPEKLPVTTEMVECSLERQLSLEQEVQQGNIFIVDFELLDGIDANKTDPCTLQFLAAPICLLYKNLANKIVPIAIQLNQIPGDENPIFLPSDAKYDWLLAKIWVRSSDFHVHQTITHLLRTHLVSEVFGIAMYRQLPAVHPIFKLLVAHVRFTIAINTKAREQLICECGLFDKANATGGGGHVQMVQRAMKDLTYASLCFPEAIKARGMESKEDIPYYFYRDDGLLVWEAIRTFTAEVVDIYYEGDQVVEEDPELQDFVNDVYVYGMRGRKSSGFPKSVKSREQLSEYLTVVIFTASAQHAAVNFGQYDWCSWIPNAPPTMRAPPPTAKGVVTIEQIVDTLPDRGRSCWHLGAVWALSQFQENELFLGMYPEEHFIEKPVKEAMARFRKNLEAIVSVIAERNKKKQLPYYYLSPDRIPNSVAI

[2] = molecular target: T2, Arachidonate 5-lipoxygenase-activating protein (Homo sapiens) (UniProt P20292); experiment: Inhibition of FLAP in A23187-stimulated human neutrophils assessed as remaining enzyme activity by measuring 5-LO product formation at 1 uM preincubated for 15 mins followed by A23187 and arachidonic acid addition and measured after 10 mins by UV based RP-HPLC analysis (reference value: 100%)
T2 sequence (whole entry): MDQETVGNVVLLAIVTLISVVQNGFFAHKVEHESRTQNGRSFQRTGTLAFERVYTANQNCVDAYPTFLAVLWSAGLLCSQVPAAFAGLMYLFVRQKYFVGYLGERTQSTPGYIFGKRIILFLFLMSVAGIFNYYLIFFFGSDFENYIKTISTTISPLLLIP

[3] = molecular target: T3, Leukotriene C4 synthase (Homo sapiens, UniProt Q16873); experiment: Inhibition of LTC4 synthase in LPS/fMLP-stimulated human monocytes assessed as decrease in cys-LT formation pre-incubated with LPS for 30 mins and later stimulated with fMLP for 10 mins by ELISA; assay type: cell-based
T3 sequence (Q16873 whole entry): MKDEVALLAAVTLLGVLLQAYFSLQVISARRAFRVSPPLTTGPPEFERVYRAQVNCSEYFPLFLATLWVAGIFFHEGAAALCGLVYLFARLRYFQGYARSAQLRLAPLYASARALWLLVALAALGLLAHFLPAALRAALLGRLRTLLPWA

[4] = molecular target: T4, Polyunsaturated fatty acid 5-lipoxygenase (Homo sapiens) (UniProt P09917); experiment: Inhibition of recombinant human 5-LO expressed in Escherichia coli BL21 at 10 uM incubated for 15 mins prior to prewarming for 30 secs followed by CaCl2+ and arachidonic acid addition and measured after 10 mins by RP-HPLC analysis
T4 sequence (whole entry): T1 sequence (P09917 whole entry)

[5] = molecular target: T5, Prostaglandin E synthase (Homo sapiens) (UniProt O14684); experiment: Inhibition of mPGES1 in IL-1beta-stimulated human A549 cell microsomal fractions assessed as reduction in PGE2 production at 3 uM preincubated for 15 mins followed by PGH2 substrate addition and measured after 1 min by RP-HPLC analysis relative to control
T5 sequence (whole entry): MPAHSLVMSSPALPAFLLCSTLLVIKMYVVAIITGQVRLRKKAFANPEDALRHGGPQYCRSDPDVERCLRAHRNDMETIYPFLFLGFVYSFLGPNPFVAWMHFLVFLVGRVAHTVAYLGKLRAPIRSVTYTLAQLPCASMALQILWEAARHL

[6] = molecular target: T2, Arachidonate 5-lipoxygenase-activating protein (Homo sapiens); experiment: Inhibition of FLAP in A23187-stimulated human neutrophils assessed as remaining enzyme activity by measuring 5-LO product formation at 0.1 uM preincubated for 15 mins followed by A23187 and arachidonic acid addition and measured after 10 mins by UV based RP-HPLC analysis (reference value: 100%)
[7] = molecular target: T6, Arachidonate 5-lipoxygenase-activating protein (Homo sapiens, UniProt P20292); experiment: Inhibition of FLAP in A23187-stimulated human monocytes assessed as reduction in 5-LO product formation preincubated for 15 mins followed by A23187 and arachidonic acid addition and measured after 10 mins by UV based RP-HPLC analysis; assay type: cell-based
T6 sequence (P20292 whole entry): T2 sequence (whole entry)

[8] = molecular target: T6, Arachidonate 5-lipoxygenase-activating protein; experiment: Inhibition of FLAP in A23187-stimulated human neutrophils assessed as reduction in 5-LO product formation preincubated for 15 mins followed by A23187 and arachidonic acid addition and measured after 10 mins by UV based RP-HPLC analysis

IC50 [1]: 60 nM | Activity [2]: 0% | IC50 [3]: 30 nM | inhibition [4]: 26% | inhibition [5]: > 50% | Activity [6]: 32.1% | IC50 [7]: 70 nM | IC50 [8]: 50 nM
SMILES: CC(C)Cc1ccc(C(C)c2nc3cc(CCC(=O)O)ccc3n2Cc2ccccc2Cl)cc1 (stereo not drawn)
